According to patent US9125913B2, “Bcl-2-selective apoptosis-inducing agents for the treatment of cancer and immune diseases” (AbbVie Inc., priority 2008, dated 2015):

What was measured:
GST-Bcl-2 = test: TR-FRET binding assay, Bcl-2; details: TR-FRET Ki values
Summary of the method: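 Ki values come from Wang's competitive-binding equation applied to TR-FRET signal (excitation 340/35 nm; emission 520/525 nm F-Bak peptide, 495/510 nm Tb antibody). Protein, probe and antibody incubated with compound 3 h at room temperature; dilution series began at 50 μM as 2× stock in 10% DMSO.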

FL5.12/Bcl-2 cells = test: FL5.12/Bcl-2 cell viability assay; format: cell-based, murine; details: ratio of canine platelet EC50 to FL5.12/Bcl-2 EC50
Summary of the method: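 Murine IL-3-dependent FL5.12 cells stably overexpressing Bcl-2 were deprived of IL-3 (WEHI-3B conditioned medium) for 48 h, then exposed to various compound concentrations for 24 h at 37 °C. Viability read by CellTiter-Glo luminescence.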

CN(C)CCOc1ccc(-c2ccc(Cl)cc2)c(CN2CCN(c3ccc(C(=O)NS(=O)(=O)c4ccc(NC5CCN(CC(F)(F)F)CC5)c([N+](=O)[O-])c4)c(Oc4ccccc4)c3)CC2)c1 [Example 137, 4-[4-({4′-chloro-4-[2-(dimethylamino)ethoxy]-1,1′-biphenyl-2-yl}methyl)piperazin-1-yl]-N-[(3-nitro-4-{[1-(2,2,2-trifluoroethyl)piperidin-4-yl]amino}phenyl)sulfonyl]-2-phenoxybenzamide]
Binding selectivity ratio (Bcl-XL Ki/Bcl-2 Ki) (GST-Bcl-2): 52.4 | Selectivity Ratio (Platelet EC50/FL5.12/Bcl-2 EC50) (FL5.12/Bcl-2 cells): >178

O=C(NS(=O)(=O)c1ccc(NCC2CCOCC2)c([N+](=O)[O-])c1)c1ccc(N2CCN(Cc3cc(OCCN4CCCC4)ccc3-c3ccc(Cl)cc3)CC2)cc1Oc1ccccc1 [Example 138, 4-(4-{[4′-chloro-4-(2-pyrrolidin-1-ylethoxy)-1,1′-biphenyl-2-yl]methyl}piperazin-1-yl)-N-({3-nitro-4-[(tetrahydro-2H-pyran-4-ylmethyl)amino]phenyl}sulfonyl)-2-phenoxybenzamide]
Binding selectivity ratio (Bcl-XL Ki/Bcl-2 Ki) (GST-Bcl-2): 574.9 | Selectivity Ratio (Platelet EC50/FL5.12/Bcl-2 EC50) (FL5.12/Bcl-2 cells): 616

CC(C)N(CCOc1ccc(-c2ccc(Cl)cc2)c(CN2CCN(c3ccc(C(=O)NS(=O)(=O)c4ccc(NCC5CCOCC5)c([N+](=O)[O-])c4)c(Oc4ccccc4)c3)CC2)c1)C(C)C [Example 139, 4-[4-({4′-chloro-4-[2-(diisopropylamino)ethoxy]-1,1′-biphenyl-2-yl}methyl)piperazin-1-yl]-N-({3-nitro-4-[(tetrahydro-2H-pyran-4-ylmethyl)amino]phenyl}sulfonyl)-2-phenoxybenzamide]
Binding selectivity ratio (Bcl-XL Ki/Bcl-2 Ki) (GST-Bcl-2): 103.1 | Selectivity Ratio (Platelet EC50/FL5.12/Bcl-2 EC50) (FL5.12/Bcl-2 cells): 841

O=C(NS(=O)(=O)c1ccc(NCC2CCOCC2)c([N+](=O)[O-])c1)c1ccc(N2CCN(Cc3ccccc3-c3ccc(Cl)cc3)CC2)cc1Oc1ccc2c(c1)CCN2 [Example 140, 4-{4-[(4′-chloro-1,1′-biphenyl-2-yl)methyl]piperazin-1-yl}-2-(2,3-dihydro-1H-indol-5-yloxy)-N-({3-nitro-4-[(tetrahydro-2H-pyran-4-ylmethyl)amino]phenyl}sulfonyl)benzamide]
Binding selectivity ratio (Bcl-XL Ki/Bcl-2 Ki) (GST-Bcl-2): >139.7 | Selectivity Ratio (Platelet EC50/FL5.12/Bcl-2 EC50) (FL5.12/Bcl-2 cells): >23

O=C(NS(=O)(=O)c1ccc(NCCCN2CCCC2)c([N+](=O)[O-])c1)c1ccc(N2CCN(CC3=C(c4ccc(Cl)cc4)CCCCC3)CC2)cc1Oc1cccc2[nH]ccc12 [Example 141, 4-(4-{[2-(4-chlorophenyl)cyclohept-1-en-1-yl]methyl}piperazin-1-yl)-2-(1H-indol-4-yloxy)-N-({3-nitro-4-[(3-pyrrolidin-1-ylpropyl)amino]phenyl}sulfonyl)benzamide]
Binding selectivity ratio (Bcl-XL Ki/Bcl-2 Ki) (GST-Bcl-2): 42.6 | Selectivity Ratio (Platelet EC50/FL5.12/Bcl-2 EC50) (FL5.12/Bcl-2 cells): >661

O=C(NS(=O)(=O)c1ccc(NCCCN2CCCC2)c([N+](=O)[O-])c1)c1ccc(N2CCN(CC3=C(c4ccc(Cl)cc4)CCCCCC3)CC2)cc1Oc1cccc2[nH]ccc12 [Example 142, 4-(4-{[2-(4-chlorophenyl)cyclooct-1-en-1-yl]methyl}piperazin-1-yl)-2-(1H-indol-4-yloxy)-N-({3-nitro-4-[(3-pyrrolidin-1-ylpropyl)amino]phenyl}sulfonyl)benzamide]
Binding selectivity ratio (Bcl-XL Ki/Bcl-2 Ki) (GST-Bcl-2): 27.8 | Selectivity Ratio (Platelet EC50/FL5.12/Bcl-2 EC50) (FL5.12/Bcl-2 cells): >185

O=C(NS(=O)(=O)c1ccc(NCCCN2CCCC2)c([N+](=O)[O-])c1)c1ccc(N2CCN(CC3=C(c4ccc(Cl)cc4)CCC3)CC2)cc1Oc1cccc2[nH]ccc12 [Example 143, 4-(4-{[2-(4-chlorophenyl)cyclopent-1-en-1-yl]methyl}piperazin-1-yl)-2-(1H-indol-4-yloxy)-N-({3-nitro-4-[(3-pyrrolidin-1-ylpropyl)amino]phenyl}sulfonyl)benzamide]
Binding selectivity ratio (Bcl-XL Ki/Bcl-2 Ki) (GST-Bcl-2): 33.8 | Selectivity Ratio (Platelet EC50/FL5.12/Bcl-2 EC50) (FL5.12/Bcl-2 cells): >251

CN1CCC(Nc2ccc(S(=O)(=O)NC(=O)c3ccc(N4CCN(CC5=C(c6ccc(Cl)cc6)CC(C)(C)C5)CC4)cc3Oc3cccc4[nH]ccc34)cc2[N+](=O)[O-])CC1 [Example 144, 4-(4-{[2-(4-chlorophenyl)-4,4-dimethylcyclopent-1-en-1-yl]methyl}piperazin-1-yl)-2-(1H-indol-4-yloxy)-N-({4-[(1-methylpiperidin-4-yl)amino]-3-nitrophenyl}sulfonyl)benzamide]
Binding selectivity ratio (Bcl-XL Ki/Bcl-2 Ki) (GST-Bcl-2): >12.2 | Selectivity Ratio (Platelet EC50/FL5.12/Bcl-2 EC50) (FL5.12/Bcl-2 cells): 864

CN1CCC(Nc2ccc(S(=O)(=O)NC(=O)c3ccc(N4CCN(CC5=C(c6ccc(Cl)cc6)CC(C)(C)OC5)CC4)cc3Oc3cccc4[nH]ccc34)cc2[N+](=O)[O-])CC1 [Example 145, 4-(4-{[4-(4-chlorophenyl)-6,6-dimethyl-5,6-dihydro-2H-pyran-3-yl]methyl}piperazin-1-yl)-2-(1H-indol-4-yloxy)-N-({4-[(1-methylpiperidin-4-yl)amino]-3-nitrophenyl}sulfonyl)benzamide]
Binding selectivity ratio (Bcl-XL Ki/Bcl-2 Ki) (GST-Bcl-2): 401 | Selectivity Ratio (Platelet EC50/FL5.12/Bcl-2 EC50) (FL5.12/Bcl-2 cells): 730

CN1CCC(Nc2ccc(S(=O)(=O)NC(=O)c3ccc(N4CCN(CC5=C(c6ccc(Cl)cc6)CCCCCC5)CC4)cc3Oc3cccc4[nH]ccc34)cc2[N+](=O)[O-])CC1 [Example 146, 4-(4-{[2-(4-chlorophenyl)cyclooct-1-en-1-yl]methyl}piperazin-1-yl)-2-(1H-indol-4-yloxy)-N-({4-[(1-methylpiperidin-4-yl)amino]-3-nitrophenyl}sulfonyl)benzamide]
Binding selectivity ratio (Bcl-XL Ki/Bcl-2 Ki) (GST-Bcl-2): >14.9 | Selectivity Ratio (Platelet EC50/FL5.12/Bcl-2 EC50) (FL5.12/Bcl-2 cells): 145

CN1CCC(Nc2ccc(S(=O)(=O)NC(=O)c3ccc(N4CCN(CC5=C(c6ccc(Cl)cc6)CCCCC5)CC4)cc3Oc3cccc4[nH]ccc34)cc2[N+](=O)[O-])CC1 [Example 147, 4-(4-{[2-(4-chlorophenyl)cyclohept-1-en-1-yl]methyl}piperazin-1-yl)-2-(1H-indol-4-yloxy)-N-({4-[(1-methylpiperidin-4-yl)amino]-3-nitrophenyl}sulfonyl)benzamide]
Binding selectivity ratio (Bcl-XL Ki/Bcl-2 Ki) (GST-Bcl-2): >1284.0 | Selectivity Ratio (Platelet EC50/FL5.12/Bcl-2 EC50) (FL5.12/Bcl-2 cells): 1895

CN1CCC(Nc2ccc(S(=O)(=O)NC(=O)c3ccc(N4CCN(CC5=C(c6ccc(Cl)cc6)CCCC5)CC4)cc3Oc3cccc4[nH]ccc34)cc2[N+](=O)[O-])CC1 [Example 149, 4-(4-{[2-(4-chlorophenyl)cyclohex-1-en-1-yl]methyl}piperazin-1-yl)-2-(1H-indol-4-yloxy)-N-({4-[(1-methylpiperidin-4-yl)amino]-3-nitrophenyl}sulfonyl)benzamide]
Binding selectivity ratio (Bcl-XL Ki/Bcl-2 Ki) (GST-Bcl-2): >2490.6 | Selectivity Ratio (Platelet EC50/FL5.12/Bcl-2 EC50) (FL5.12/Bcl-2 cells): 1298

CN1CCC(Nc2ccc(S(=O)(=O)NC(=O)c3ccc(N4CCN(CC5=C(c6ccc(Cl)cc6)CC(C)(C)OC5)CC4)cc3Oc3ccc4[nH]ccc4c3)cc2[N+](=O)[O-])CC1 [Example 150, 4-(4-{[4-(4-chlorophenyl)-6,6-dimethyl-5,6-dihydro-2H-pyran-3-yl]methyl}piperazin-1-yl)-2-(1H-indol-5-yloxy)-N-({4-[(1-methylpiperidin-4-yl)amino]-3-nitrophenyl}sulfonyl)benzamide]
Binding selectivity ratio (Bcl-XL Ki/Bcl-2 Ki) (GST-Bcl-2): 667 | Selectivity Ratio (Platelet EC50/FL5.12/Bcl-2 EC50) (FL5.12/Bcl-2 cells): 509

CN1CCC(Nc2ccc(S(=O)(=O)NC(=O)c3ccc(N4CCN(CC5=C(c6ccc(Cl)cc6)CCCCC5)CC4)cc3Oc3ccc4[nH]ccc4c3)cc2[N+](=O)[O-])CC1 [Example 151, 4-(4-{[2-(4-chlorophenyl)cyclohept-1-en-1-yl]methyl}piperazin-1-yl)-2-(1H-indol-5-yloxy)-N-({4-[(1-methylpiperidin-4-yl)amino]-3-nitrophenyl}sulfonyl)benzamide]
Binding selectivity ratio (Bcl-XL Ki/Bcl-2 Ki) (GST-Bcl-2): >4074.1 | Selectivity Ratio (Platelet EC50/FL5.12/Bcl-2 EC50) (FL5.12/Bcl-2 cells): 642

CN1CCC(Nc2ccc(S(=O)(=O)NC(=O)c3ccc(N4CCN(CC5=C(c6ccc(Cl)cc6)CC(C)(C)CC5)CC4)cc3Oc3ccccc3)cc2[N+](=O)[O-])CC1 [Example 152, 4-(4-{[2-(4-chlorophenyl)-4,4-dimethylcyclohex-1-en-1-yl]methyl}piperazin-1-yl)-N-({4-[(1-methylpiperidin-4-yl)amino]-3-nitrophenyl}sulfonyl)-2-phenoxybenzamide]
Binding selectivity ratio (Bcl-XL Ki/Bcl-2 Ki) (GST-Bcl-2): 15.8 | Selectivity Ratio (Platelet EC50/FL5.12/Bcl-2 EC50) (FL5.12/Bcl-2 cells): 283

CN(C)CCCNc1ccc(S(=O)(=O)NC(=O)c2ccc(N3CCN(Cc4ccccc4-c4ccc(Cl)cc4)CC3)cc2Oc2ccccc2)cc1[N+](=O)[O-] [Example 154, 4-{4-[(4′-chloro-1,1′-biphenyl-2-yl)methyl]piperazin-1-yl}-N-[(4-{[3-(dimethylamino)propyl]amino}-3-nitrophenyl)sulfonyl]-2-phenoxybenzamide]
Binding selectivity ratio (Bcl-XL Ki/Bcl-2 Ki) (GST-Bcl-2): 40.4 | Selectivity Ratio (Platelet EC50/FL5.12/Bcl-2 EC50) (FL5.12/Bcl-2 cells): 343

O=C(NS(=O)(=O)c1ccc(NCCCN2CCOCC2)c([N+](=O)[O-])c1)c1ccc(N2CCN(Cc3ccccc3-c3ccc(Cl)cc3)CC2)cc1Oc1ccccc1 [Example 155, 4-{4-[(4′-chloro-1,1′-biphenyl-2-yl)methyl]piperazin-1-yl}-N-({4-[(3-morpholin-4-ylpropyl)amino]-3-nitrophenyl}sulfonyl)-2-phenoxybenzamide]
Binding selectivity ratio (Bcl-XL Ki/Bcl-2 Ki) (GST-Bcl-2): 77.8 | Selectivity Ratio (Platelet EC50/FL5.12/Bcl-2 EC50) (FL5.12/Bcl-2 cells): >119

CN(C)CCCNc1ccc(S(=O)(=O)NC(=O)c2ccc(N3CCN(Cc4ccccc4-c4ccc(Cl)cc4)CC3)cc2Oc2ccc3ccccc3c2)cc1[N+](=O)[O-] [Example 166, 4-{4-[(4′-chloro-1,1′-biphenyl-2-yl)methyl]piperazin-1-yl}-N-[(4-{[3-(dimethylamino)propyl]amino}-3-nitrophenyl)sulfonyl]-2-(2-naphthyloxy)benzamide]
Binding selectivity ratio (Bcl-XL Ki/Bcl-2 Ki) (GST-Bcl-2): 7.1 | Selectivity Ratio (Platelet EC50/FL5.12/Bcl-2 EC50) (FL5.12/Bcl-2 cells): >327
